Laboratory results published in patent publication US20250115654A1, “PHARMACEUTICAL COMPOSITION OF GLP-1 RECEPTOR AND GIP RECEPTOR DUAL AGONIST, AND USE THEREOF” (FUJIAN SHENGDI PHARMACEUTICAL CO., LTD., priority 2021, published 2025).
Numbered stars: 1 amine (or outer) side, 2 acyl side, 3 side chain; on linkers, the order of the positions; unused ones are H or OH. Square brackets hold non-standard residues; d marks the D form. Side chains are listed from the residue outwards. Peptide text beside a SMILES is read from it. * marks the point of attachment. C20 diacid = O=C(O)CCCCCCCCCCCCCCCCCCC(=O)*; γGlu = O=C(O)[C@H](CCC(=O)[*:2])N[*:1]; AEEA = NCCOCCOCC(=O)O; Aib = CC(C)(N)C(=O)O

Test system: DIO mice
Experiment: Food intake of DIO (diet-induced obesity) mice
Format: in vivo, C57BL/6 mice
Experimental: High-fat food-induced-obesity male C57BL/6 mice (weighing 35-55 g, aged 10-12 weeks, purchased from Shanghai Jiesijie Laboratory Animal Co., Ltd.) were tested. […] According to the experimental design, the body weight of each mouse was measured and recorded on day 0, day 3, day 6, and so on to day 27, the average body weight of each group of mice was calculated, and body weight change curves were plotted by taking the body weight on the first day as the standard. At the end, the fat and other visceral organs of each part of the mice were taken out and weighed, and the viscera/brain ratio for fat in each part of each mouse was calculated. The effect of the drug on the fat was determined by comparing the change in the viscera/brain ratio for fat of different parts of each group of mice.
The food intake of mice in each group was measured daily during the experiment.

For `CC[C@H](C)[C@H](NC(=O)[C@H](CCCCN)NC(=O)[C@H](CCC(=O)O)NC(=O)[C@H](CCCCNC(=O)COCCOCCNC(=O)COCCOCCNC(=O)CC[C@H](NC(=O)CCCCCCCCCCCCCCCCCCC(=O)O)C(=O)O)NC(=O)[C@H](Cc1ccc(O)cc1)NC(=O)[C@@H](NC(=O)[C@H](CO)NC(=O)[C@H](Cc1ccc(O)cc1)NC(=O)[C@H](CC(=O)O)NC(=O)[C@H](CO)NC(=O)[C@@H](NC(=O)[C@H](Cc1ccccc1)NC(=O)[C@@H](NC(=O)CNC(=O)[C@H](CCC(=O)O)NC(=O)C(C)(C)NC(=O)[C@@H](N)Cc1ccc(O)cc1)[C@@H](C)O)[C@@H](C)O)[C@@H](C)CC)C(=O)N[C@@H](C)C(=O)N[C@@H](C)C(=O)N[C@@H](CCC(N)=O)C(=O)N[C@@H](CCC(=O)O)C(=O)N[C@@H](Cc1ccccc1)C(=O)N[C@H](C(=O)N[C@@H](CC(N)=O)C(=O)N[C@@H](Cc1c[nH]c2ccccc12)C(=O)N[C@@H](CC(C)C)C(=O)N[C@@H](CC(C)C)C(=O)N[C@@H](C)C(=O)NCC(=O)NCC(=O)N1CCC[C@H]1C(=O)N[C@@H](CO)C(=O)N[C@@H](CO)C(=O)NCC(=O)N[C@@H](C)C(=O)N1CCC[C@H]1C(=O)N1CCC[C@H]1C(=O)N1CCC[C@H]1C(=O)N[C@@H](CO)C(N)=O)C(C)C` [Compound 18#] (H-Y[Aib]EGTFTSDYSIYK([AEEA-AEEA-γGlu-C20 diacid])EKIAAQEFVNWLLAGGPSSGAPPPS-NH2), the cumulative food intake (3 nmol/kg, 28 days after the administration) was 58.2 g, the “daily food intake ration” value (3 nmol/kg, day 1 after administration) was 0.6 ± 0.1 g and the “daily food intake ration” value (3 nmol/kg, day 1 after administration, listed as 18#) was 0.6 g. The “daily food intake ration” value (3 nmol/kg, day 2 after administration) was 1.3 ± 0.5 g, the “daily food intake ration” value (3 nmol/kg, day 3 after administration) was 2 ± 0.5 g and the “daily food intake ration” value (3 nmol/kg, day 4 after administration) was 1.1 ± 0.4 g. The “daily food intake ration” value (3 nmol/kg, day 5 after administration) was 2.2 ± 1.3 g, the “daily food intake ration” value (3 nmol/kg, day 6 after administration) was 2.1 ± 1.1 g and the “daily food intake ration” value (3 nmol/kg, day 7 after administration) was 1.1 ± 0.6 g. For the same compound, the “daily food intake ration” value (3 nmol/kg, day 8 after administration) was 1.6 ± 0.6 g, the “daily food intake ration” value (3 nmol/kg, day 9 after administration) was 2.5 ± 0.9 g and the “daily food intake ration” value (3 nmol/kg, day 10 after administration) was 1.3 ± 0.6 g. For the same compound, the “daily food intake ration” value (3 nmol/kg, day 11 after administration) was 2 ± 0.3 g, the “daily food intake ration” value (3 nmol/kg, day 12 after administration) was 3 ± 1 g and the “daily food intake ration” value (3 nmol/kg, day 13 after administration) was 1.8 ± 1 g. The “daily food intake ration” value (3 nmol/kg, day 14 after administration) was 2.3 ± 1 g, the “daily food intake ration” value (3 nmol/kg, day 15 after administration) was 2.9 ± 0.7 g and the “daily food intake ration” value (3 nmol/kg, day 16 after administration) was 1.5 ± 0.7 g. For the same compound, the “daily food intake ration” value (3 nmol/kg, day 17 after administration) was 2.2 ± 0.5 g, the “daily food intake ration” value (3 nmol/kg, day 18 after administration) was 2.7 ± 0.3 g and the “daily food intake ration” value (3 nmol/kg, day 19 after administration) was 1.7 ± 0.5 g. For the same compound, the “daily food intake ration” value (3 nmol/kg, day 20 after administration) was 2.2 ± 0.5 g, the “daily food intake ration” value (3 nmol/kg, day 21 after administration) was 3.4 ± 0.4 g and the “daily food intake ration” value (3 nmol/kg, day 22 after administration) was 1.8 ± 0.5 g. The “daily food intake ration” value (3 nmol/kg, day 23 after administration) was 2.6 ± 0.4 g, the “daily food intake ration” value (3 nmol/kg, day 24 after administration) was 2.9 ± 0.5 g and the “daily food intake ration” value (3 nmol/kg, day 25 after administration) was 1.8 ± 0.8 g. The “daily food intake ration” value (3 nmol/kg, day 26 after administration) was 2.5 ± 0.9 g, the “daily food intake ration” value (3 nmol/kg, day 27 after administration) was 3.9 ± 0.5 g and the “daily food intake ration” value (3 nmol/kg, day 28 after administration) was 1.3 ± 0.6 g. The cumulative food intake (3 nmol/kg, within 5 days after the administration) was 7.2 g, the cumulative food intake (10 nmol/kg, 28 days after the administration) was 46.8 g and the “daily food intake ration” value (10 nmol/kg, day 1 after administration) was 0.3 ± 0.2 g. For the same compound, the “daily food intake ration” value (10 nmol/kg, day 1 after administration, listed as 18#) was 0.3 g, the “daily food intake ration” value (10 nmol/kg, day 2 after administration) was 0.6 ± 0.6 g and the “daily food intake ration” value (10 nmol/kg, day 3 after administration) was 1.1 ± 0.7 g. The “daily food intake ration” value (10 nmol/kg, day 4 after administration) was 0.7 ± 0.5 g, the “daily food intake ration” value (10 nmol/kg, day 5 after administration) was 1.1 ± 0.5 g and the “daily food intake ration” value (10 nmol/kg, day 6 after administration) was 1.5 ± 0.8 g. The “daily food intake ration” value (10 nmol/kg, day 7 after administration) was 0.8 ± 0.4 g, the “daily food intake ration” value (10 nmol/kg, day 8 after administration) was 1.1 ± 0.7 g and the “daily food intake ration” value (10 nmol/kg, day 9 after administration) was 2 ± 0.6 g. For the same compound, the “daily food intake ration” value (10 nmol/kg, day 10 after administration) was 0.9 ± 0.4 g, the “daily food intake ration” value (10 nmol/kg, day 11 after administration) was 1.8 ± 0.8 g and the “daily food intake ration” value (10 nmol/kg, day 12 after administration) was 2.4 ± 0.6 g. For the same compound, the “daily food intake ration” value (10 nmol/kg, day 13 after administration) was 0.9 ± 0.4 g, the “daily food intake ration” value (10 nmol/kg, day 14 after administration) was 1.7 ± 0.7 g and the “daily food intake ration” value (10 nmol/kg, day 15 after administration) was 3 ± 0.9 g. The “daily food intake ration” value (10 nmol/kg, day 16 after administration) was 1.2 ± 1 g, the “daily food intake ration” value (10 nmol/kg, day 17 after administration) was 2.1 ± 0.9 g and the “daily food intake ration” value (10 nmol/kg, day 18 after administration) was 2.9 ± 0.8 g. For the same compound, the “daily food intake ration” value (10 nmol/kg, day 19 after administration) was 1.3 ± 0.5 g, the “daily food intake ration” value (10 nmol/kg, day 20 after administration) was 2 ± 0.5 g and the “daily food intake ration” value (10 nmol/kg, day 21 after administration) was 3.2 ± 0.6 g. The “daily food intake ration” value (10 nmol/kg, day 22 after administration) was 1 ± 0.4 g, the “daily food intake ration” value (10 nmol/kg, day 23 after administration) was 2.3 ± 0.5 g and the “daily food intake ration” value (10 nmol/kg, day 24 after administration) was 2.5 ± 0.6 g. The “daily food intake ration” value (10 nmol/kg, day 25 after administration) was 1.6 ± 1.2 g, the “daily food intake ration” value (10 nmol/kg, day 26 after administration) was 2.2 ± 0.8 g and the “daily food intake ration” value (10 nmol/kg, day 27 after administration) was 3.6 ± 1^ g. For the same compound, the “daily food intake ration” value (10 nmol/kg, day 28 after administration) was 1 ± 0.5 g and the cumulative food intake (10 nmol/kg, within 5 days after the administration) was 3.9 g.
